# Patent US9375434B2, “Antitumor effect potentiator composed of imidazooxazine compound” (Taiho Pharmaceutical Co., Ltd., priority 2012, dated 2016)
# Assays:
# Assay type in all cases: in vivo, BALB/cA Jcl-nu/nu mice
# [1] = system: Human ovarian cancer A2780 cell line; assay: Potentiation of antitumor effect of paclitaxel, A2780 subcutaneous implant in nude mice (Test Example 1)
# Method: Human ovarian cancer A2780 cell line was subcutaneously implanted into the right flank of 7-week-old male BALB/cA Jcl-nu/nu mice. After the implant, the length (mm) and the width (mm) of the tumor were measured, and the tumor volume (TV) was calculated. Thereafter, the mice were divided into groups so that the average TV is equalized in each group. The day of grouping (n=5) is referred to as Day 0. […] Test liquids for the groups receiving only Compound-I were prepared by diluting Compound-I with 0.5% hydroxypropyl methylcellulose (HPMC) so as to enable administration at a Compound-I dose of 8 mg/kg/day, 16 mg/kg/day, and 24 mg/kg/day. […] In the groups receiving the two drugs, Compound-I was administered at doses of 8 mg/kg/day, 16 mg/kg/day, and 24 mg/kg/day, and paclitaxel was administered at a dose of 60 mg/kg/day. […] In the figure, the asterisk represents a result having a statistically significant difference compared with the single-drug administration group. FIG. 1 and Table 10 show the results.
# [2] = system: Human stomach cancer cell line (NCI-N87); assay: Potentiation of antitumor effect of everolimus, NCI-N87 subcutaneous implant in nude mice (Test Example 7); conditions: compound-I 16 mg/kg/day p.o. day 1-14
# Method: As an index of antitumor effect, the TV at Day 15 was measured for each of the drug administration groups, and the relative tumor volume (RTV) relative to Day 1 and T/C (%) were calculated by the following formulas to evaluate the antitumor effect. […] In the figure, the asterisk represents a result having a statistically significant difference compared with the single-drug administration group.
# FIG. 1 and Table 10 show the results. TV (mm^3)=(length×width^2)/2 RTV=(TV at Day 15)/(TV at Day 1) T/C(%)=(average RTV value of the test liquid administration group)/(average RTV value of the control group)×100
# Human stomach cancer cell line (NCI-N87) was subcutaneously implanted into the right flank of 7-week-old male BALB/cA Jcl-nu/nu mice, and was used in the same manner as in Test Example 1.
# In the group receiving only everolimus (IS Chemical Technology), the test liquid was prepared to enable administration at an everolimus dose of 5 mg/kg/day. A vehicle of 5% ethyl alcohol/5% PEG400/4% Tween 20/86% distilled water was used. In the groups receiving only Compound-I, the test liquid was prepared by diluting Compound-I with 0.5% HPMC to enable administration at a Compound-I dose of 16 mg/kg/day. In the combined administration group, Compound-I was administered at a dose of 16 mg/kg/day, and everolimus was administered at a dose of 5 mg/kg/day. Both Compound-I and everolimus were orally administered once a day for 14 days from Day 1, and the evaluation was performed in the same manner as in Test Example 1. FIG. 13 and Table 16 show the results.
# In the figure and the table, the asterisk represents a result having a statistically significant difference compared with the single-drug administration group.
# [3] = system: Human ovarian cancer cell line (A2780); assay: Potentiation of antitumor effect of irinotecan, A2780 subcutaneous implant in nude mice (Test Example 5); conditions: compound-I 16 mg/kg/day p.o. day 1-14
# Method: As an index of antitumor effect, the TV at Day 15 was measured for each of the drug administration groups, and the relative tumor volume (RTV) relative to Day 1 and T/C (%) were calculated by the following formulas to evaluate the antitumor effect.
# TV (mm^3)=(length×width^2)/2 RTV=(TV at Day 15)/(TV at Day 1) T/C(%)=(average RTV value of the test liquid administration group)/(average RTV value of the control group)×100
# Human ovarian cancer cell line (A2780) was subcutaneously implanted into the right flank of 7-week-old male BALB/cA Jcl-nu/nu mice, and was used in the same manner as in Test Example 1. […] Further, the test liquid of Compound-I was prepared by adjusting its dose to 16 mg/kg/day.
# The effect of the combined administration was also statistically determined in the same manner as in Test Example 1. […] FIG. 9 and Table 14 show the results. Further, the change in the body weight over time was evaluated as an index of toxicity in the same manner as in Test Example 1.
# [4] = system: Human stomach cancer cell line (NCI-N87); assay: Potentiation of antitumor effect of lapatinib, NCI-N87 subcutaneous implant in nude mice (Test Example 4); conditions: compound-I 16 mg/kg/day p.o. day 1-14 (q.d.)
# Method: In the figure, the asterisk represents a result having a statistically significant difference compared with the single-drug administration group. FIG. 1 and Table 10 show the results. […] Lapatinib was prepared by adjusting its dose to 100 mg/kg/day. Further, the test liquid of Compound-I was prepared by adjusting its dose to 16 mg/kg/day. […] The effect of the combined administration was also statistically determined in the same manner as in Test Example 1. In the figure and the table, the asterisk represents a result having a statistically significant difference compared with the single-drug administration group. FIG. 7 and Table 13 show the results.
# [5] = system: Human ovarian cancer cell line (A2780); assay: Potentiation of antitumor effect of doxorubicin, A2780 subcutaneous implant in nude mice (Test Example 6)
# Method: In the groups receiving only Compound-I, the test liquid was prepared by diluting Compound-I with 0.5% HPMC to enable administration at a Compound-I dose of 16 mg/kg/day. […] The effect of the combined administration was also statistically determined in the same manner as in Test Example 1.
# [6] = compound-I 8 mg/kg/day p.o. day 1-14
# [7] = compound-I 16 mg/kg/day p.o. day 1-14
# [8] = compound-I 24 mg/kg/day p.o. day 1-14
compound,measurement,setting,value
"CC1(O)CC(N)(c2ccc(-c3nc4n(c3-c3ccccc3)COc3ccncc3-4)cc2)C1 (stereo not drawn) [compound-I, trans-3-amino-1-methyl-3-(4-(3-phenyl-5H-imidazo[1,2-c]pyrido[3,4-e][1,3]oxazin-2-yl)phenyl)cyclobutanol]",RTV day 15 Mean ± SD,[1]; [6],23.66 ± 9.16
same,T/C (%),[1]; [6],92%
same,RTV day 15 Mean ± SD,[1]; [7],19.91 ± 1.41
same,T/C (%),[1]; [7],77%
same,RTV day 15 Mean ± SD,[1]; [8],18.94 ± 5.52
same,T/C (%),[1]; [8],74%
same,RTV day 15 Mean ± SD,[2],1.19 ± 0.27
same,T/C (%),[2],43%
same,RTV day 15 Mean ± SD,[3],19.16 ± 2.60
same,T/C (%),[3],63%
same,RTV day 15 Mean ± SD,[4],1.14 ± 0.11
same,T/C (%),[4],42%
same,T/C (%),[5]; compound-I 16 mg/kg/day day 1-14,80%
same,RTV day 15 Mean ± SD,[5]; [7],22.17 ± 7.20
